Experimental data as given in publication PMC9204775 (ACS Chemical Neuroscience, 2022).

Experiments:
human (α4)3(β2)2 nAChR = human (α4)3(β2)2 nAChR (Homo sapiens, UniProt P17787+P43681); test: Two-electrode voltage-clamp recording, (α4)3(β2)2 nAChRs expressed in Xenopus oocytes (α4:β2 cRNA 10:1); settings: for remaining activity at 100 µM: read-out: (α4)3(β2)2 nAChR (% control response ACh)
Protocol: (§2) To achieve heterologous expression of human α4β2 nAChRs in two distinct subunit stoichiometries [(α4)2(β2)3 and (α4)3(β2)2], a well-established protocol was employed in which Xenopus laevis oocytes were injected with α4 and β2 cRNA in ratios of 1:10 and 10:1, respectively.[19],[20] […] Oocytes were injected, using a Drummond variable volume microinjector, with 32.2 nL of cRNA containing either a mixture of 30 ng/μL human α4 and 300 ng/μL human β2 or 300 ng/μL human α4 and 30 ng/μL human β2 cRNAs.
(§3) Xenopus were anesthetized by immersion in 0.2% MS222 for 15 min (or until complete anesthesia was confirmed by absence of leg-withdrawal and righting reflex), followed by cranial concussion, decapitation, and pithing. Xenopus oocytes were isolated, maintained, and injected with cRNA, as described previously.[21] […] Application of compounds was controlled by LabChart software (AD Instruments) using a BPS-8 solenoid valve solution exchange system (ALA Scientific Inc.). Typically, agonists were applied for 5 s or until a plateau in the response was observed. Antagonists were preapplied for 30 s and then coapplied with agonist for 5 s or until a plateau in the response was observed.
(§4) For individual pairwise comparisons, statistical significance was determined using unpaired Student’s t tests or ANOVA for multiple comparisons. Dose–response curves were fitted by GraphPad Prism, using the following equation (where I is the current, Imax is the maximum current, the EC50 is the concentration of agonist that elicits a half-maximal response, and nH is the Hill coefficient): [drawing 1]

human (α4)2(β2)3 nAChR = target: T1, human (α4)2(β2)3 nAChR (Homo sapiens, UniProt P17787+P43681); test: Two-electrode voltage-clamp recording, (α4)2(β2)3 nAChRs expressed in Xenopus oocytes (α4:β2 cRNA 1:10); format: cell-based; settings: for stoichiometry selectivity of antagonism, (α4)2(β2)3 versus (α4)3(β2)2 nAChRs: 100 μM antibiotic coapplied with EC50 concentration of ACh, compared with (α4)3(β2)2; for remaining activity at 100 µM: read-out: (α4)2(β2)3 nAChR (% control response to ACh)
T1 construct: expressed in transfected cells; host or cells: Xenopus laevis oocytes (cRNA injection)
T1 sequence (P43681 27-627): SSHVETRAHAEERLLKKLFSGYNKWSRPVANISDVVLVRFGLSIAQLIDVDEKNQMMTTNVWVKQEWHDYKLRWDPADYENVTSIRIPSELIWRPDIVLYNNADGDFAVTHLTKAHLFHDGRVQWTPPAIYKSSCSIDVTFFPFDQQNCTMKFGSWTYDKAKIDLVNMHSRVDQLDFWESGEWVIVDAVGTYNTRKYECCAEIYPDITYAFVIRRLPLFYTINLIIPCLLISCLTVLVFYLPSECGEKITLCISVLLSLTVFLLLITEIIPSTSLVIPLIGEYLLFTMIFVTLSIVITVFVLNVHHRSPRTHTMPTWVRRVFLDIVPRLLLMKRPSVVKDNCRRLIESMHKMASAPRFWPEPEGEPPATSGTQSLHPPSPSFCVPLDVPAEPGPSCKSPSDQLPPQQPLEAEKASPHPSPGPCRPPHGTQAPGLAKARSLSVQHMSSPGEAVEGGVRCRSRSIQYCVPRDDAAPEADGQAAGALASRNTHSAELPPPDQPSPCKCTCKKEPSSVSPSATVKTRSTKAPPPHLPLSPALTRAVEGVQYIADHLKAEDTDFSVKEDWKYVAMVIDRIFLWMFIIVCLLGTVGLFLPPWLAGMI
T1 sequence (P17787 26-502): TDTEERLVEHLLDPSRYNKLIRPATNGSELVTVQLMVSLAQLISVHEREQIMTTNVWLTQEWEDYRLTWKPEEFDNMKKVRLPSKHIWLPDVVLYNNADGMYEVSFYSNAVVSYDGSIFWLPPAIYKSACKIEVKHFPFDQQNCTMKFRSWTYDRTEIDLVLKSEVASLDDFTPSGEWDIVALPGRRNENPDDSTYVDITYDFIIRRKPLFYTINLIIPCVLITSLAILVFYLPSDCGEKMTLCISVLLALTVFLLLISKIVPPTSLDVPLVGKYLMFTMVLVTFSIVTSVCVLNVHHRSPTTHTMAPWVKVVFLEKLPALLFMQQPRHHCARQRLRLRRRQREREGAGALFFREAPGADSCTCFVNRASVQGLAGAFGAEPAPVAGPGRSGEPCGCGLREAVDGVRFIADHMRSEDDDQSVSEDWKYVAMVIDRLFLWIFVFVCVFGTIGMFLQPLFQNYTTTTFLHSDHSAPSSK
Protocol: as §2, §3, §4

human α4β2 nAChR = target: T2, human α4β2 nAChR (Homo sapiens, UniProt P17787+P43681); test: Two-electrode voltage-clamp recording, heterologously expressed α4β2 nAChRs (stoichiometry not distinguished); format: cell-based; settings: wild-type, no ACh
T2 construct: expressed in transfected cells; host or cells: Xenopus laevis oocytes (cRNA injection)
T2 sequence (P43681 27-627): as the sequence (P43681 27-627) above
T2 sequence (P17787 26-502): as the sequence (P17787 26-502) above
Protocol: as §2
Xenopus oocytes were isolated, maintained, and injected with cRNA, as described previously.[21] Two-electrode voltage-clamp recordings were performed using a Warner Instruments OC-725C amplifier (Harvard Apparatus) with the oocyte membrane potential held at −60 mV, as described previously.[22] Oocytes were continuously perfused with a modified Ringer’s solution (115 mM NaCl, 2.5 mM KCl, 1.8 mM BaCl2, and 10 mM HEPES, pH 7.3). Application of compounds was controlled by LabChart software (AD Instruments) using a BPS-8 solenoid valve solution exchange system (ALA Scientific Inc.). Typically, agonists were applied for 5 s or until a plateau in the response was observed. Antagonists were preapplied for 30 s and then coapplied with agonist for 5 s or until a plateau in the response was observed.

[1] = target: α4β2 nAChRs containing mutated α4^L283A (Homo sapiens, UniProt P17787+P43681, L283A); settings: no ACh
Sequence of α4β2 nAChRs containing mutated α4^L283A (P43681 27-627 L283A): as the sequence (P43681 27-627) above, with L257A counted along it
Sequence of α4β2 nAChRs containing mutated α4^L283A (P17787 26-502): as the sequence (P17787 26-502) above
Source text: (§1) Human nAChR subunit cDNAs in plasmid expression vector pSP64GL (pSP64GL-α4 and pSP64GL-β2) have been described previously.[18] […] Note that the numbering of these amino acids in the human nAChR α4 and β2 subunits is based on the intact protein sequence (including the signal sequence), as indicated in the EMBL/GenBank database entries NP_000735.1 and NP_000739.1, respectively.

[2] = target: α4β2 nAChRs containing the β2^V278A subunit (Homo sapiens, UniProt P17787+P43681, V278A); settings: no ACh
Sequence of α4β2 nAChRs containing the β2^V278A subunit (P43681 27-627): as the sequence (P43681 27-627) above
Sequence of α4β2 nAChRs containing the β2^V278A subunit (P17787 26-502 V278A): as the sequence (P17787 26-502) above, with V253A counted along it
Source text: as §1

[3] = target: α4β2 nAChRs containing mutated α4^S284A (Homo sapiens, UniProt P17787+P43681, S284A); settings: no ACh
Sequence of α4β2 nAChRs containing mutated α4^S284A (P43681 27-627 S284A): as the sequence (P43681 27-627) above, with S258A counted along it
Sequence of α4β2 nAChRs containing mutated α4^S284A (P17787 26-502, stated change not applied): as the sequence (P17787 26-502) above
Source text: as §1

human α7 nAChRs = settings: previous studies; cited from earlier work
[4] = 100 μM antibiotic coapplied with a range of ACh concentrations

Sequence of human (α4)3(β2)2 nAChR (P43681 27-627): as the sequence (P43681 27-627) above
Sequence of human (α4)3(β2)2 nAChR (P17787 26-502): as the sequence (P17787 26-502) above

With `C[C@@H]1CN(c2c(F)c(N)c3c(=O)c(C(=O)O)cn(C4CC4)c3c2F)C[C@H](C)N1` [sparfloxacin] the remaining activity at 100 µM (human (α4)3(β2)2 nAChR) was 58.4 ± 1.72%, the “stoichiometry selectivity of antagonism, (α4)2(β2)3 versus (α4)3(β2)2 nAChRs” value (“stoichiometry selectivity of antagonism” for short) (human (α4)2(β2)3 nAChR) was “significantly greater antagonism on (α4)2(β2)3 nAChRs than on (α4)3(β2)2 nAChRs” and the remaining activity at 100 µM (human (α4)2(β2)3 nAChR) was 17.4 ± 1.12%.
In the case of `CCn1cc(C(=O)O)c(=O)c2cc(F)c(N3CCNCC3)nc21` [enoxacin], the remaining activity at 100 µM (human (α4)3(β2)2 nAChR) is reported as 74.6 ± 1.88%, the “stoichiometry selectivity of antagonism” value (human (α4)2(β2)3 nAChR) is reported as “significantly greater antagonism on (α4)2(β2)3 nAChRs than on (α4)3(β2)2 nAChRs” and the remaining activity at 100 µM (human (α4)2(β2)3 nAChR) is reported as 23.5 ± 1.65%.
For `CCn1nc(C(=O)O)c(=O)c2cc3c(cc21)OCO3` [cinoxacin], the “effect when applied alone” value (human α4β2 nAChR) was “no effect”, the “effect when applied alone” value [1] was “no effect” and the “effect when applied alone” value [2] was “no effect”. The “effect when applied alone” value [3] was “no effect”, the “Hill coefficient of ACh dose-response curve in the presence of the antibiotic” value (human (α4)3(β2)2 nAChR; 100 μM antibiotic) was 0.62 ± 0.2 and the “maximal normalized ACh response in the presence of the antibiotic” value (human (α4)3(β2)2 nAChR; [4]) was 80.0 ± 0.9%. The remaining activity at 100 µM (human (α4)3(β2)2 nAChR) was 60.4 ± 0.61%, the “Hill coefficient of ACh dose-response curve in the presence of the antibiotic” value (human (α4)2(β2)3 nAChR; 100 μM antibiotic) was 1.0 ± 0.1 and the “maximal normalized ACh response in the presence of the antibiotic” value (human (α4)2(β2)3 nAChR; [4]) was 76.0 ± 1.5%. For the same compound, the remaining activity at 100 µM (human (α4)2(β2)3 nAChR) was 58.2 ± 1.2%.
In the case of `CN1CCN(c2cc3c(cc2F)c(=O)c(C(=O)O)cn3-c2ccc(F)cc2)CC1` [difloxacin], the remaining activity at 100 µM (human (α4)3(β2)2 nAChR) is reported as 57.2 ± 0.97%, the “stoichiometry selectivity of antagonism” value (human (α4)2(β2)3 nAChR) is reported as “significantly greater antagonism on (α4)2(β2)3 nAChRs than on (α4)3(β2)2 nAChRs” and the remaining activity at 100 µM (human (α4)2(β2)3 nAChR) is reported as 39.9 ± 3.02%.
For `CCN1CCN(c2cc3c(cc2F)c(=O)c(C(=O)O)cn3C2CC2)CC1` [enrofloxacin], the remaining activity at 100 µM (human (α4)3(β2)2 nAChR) was 64.8 ± 1.01%, the “stoichiometry selectivity of antagonism” value (human (α4)2(β2)3 nAChR) was “significantly greater antagonism on (α4)2(β2)3 nAChRs than on (α4)3(β2)2 nAChRs” and the remaining activity at 100 µM (human (α4)2(β2)3 nAChR) was 13.2 ± 0.46%.
In the case of `CCn1cc(C(=O)O)c(=O)c2cc3c(cc21)OCO3` [oxolinic acid], the remaining activity at 100 µM (human (α4)3(β2)2 nAChR) is reported as 60.4 ± 0.72%, the “stoichiometry selectivity of antagonism” value (human (α4)2(β2)3 nAChR) is reported as “no significant difference” and the remaining activity at 100 µM (human (α4)2(β2)3 nAChR) is reported as 59.5 ± 0.99%.
With `CCn1cc(C(=O)O)c(=O)c2cc(F)c(N3CCNCC3)cc21` [norfloxacin] the remaining activity at 100 µM (human (α4)3(β2)2 nAChR) was 54.1 ± 3.4%, the “stoichiometry selectivity of antagonism” value (human (α4)2(β2)3 nAChR) was “significantly greater antagonism on (α4)2(β2)3 nAChRs than on (α4)3(β2)2 nAChRs” and the remaining activity at 100 µM (human (α4)2(β2)3 nAChR) was 13 ± 1%.
For `CCn1cc(C(=O)O)c(=O)c2cc(F)c(N3CCN(C)CC3)cc21` [pefloxacin], the “mode of action on α7 nAChR” value (human α7 nAChRs) is listed as “noncompetitive antagonist”.
In the case of `CC(=O)OCC[N+](C)(C)C` [ACh, acetylcholine], the “Hill coefficient of ACh dose-response curve” value (human (α4)3(β2)2 nAChR; absence of antibiotic) is reported as 0.74 ± 0.
